Results on 28 molecules are retold here after patent US9963453B2, “Substituted pyrazino[1,2-a]indoles as sigma receptor activity modulators” (LABORATORIOS DEL DR. ESTEVE S.A., priority 2013, dated 2018).

SMILES strings stand for the structures. Structures can show the parent of a compound that is named as a salt.

As a reminder, the Ki is the equilibrium dissociation constant of an inhibitor or competing ligand from its target. Low values mean tighter binding, high ones weaker binding.

human sigma 1 receptor, sequence (Q99720 whole entry): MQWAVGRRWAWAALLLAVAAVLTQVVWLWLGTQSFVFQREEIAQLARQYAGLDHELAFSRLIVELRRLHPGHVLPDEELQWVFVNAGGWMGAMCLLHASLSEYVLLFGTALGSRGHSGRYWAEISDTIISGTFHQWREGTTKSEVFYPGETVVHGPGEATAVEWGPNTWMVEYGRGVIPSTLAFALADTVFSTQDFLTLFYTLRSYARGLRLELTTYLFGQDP

One assay concerns the target human sigma 1 receptor (Homo sapiens (Human), UniProt Q99720). The assay is described as follows: Human Sigma 1 Receptor Radioligand Assay. The conditions noted are these: transfected HEK-293 membranes, 5 nM [3H](+)-pentazocine as radioligand, 37° C., 120 minutes. In kind it is binding. The procedure:
Human Sigma 1 Receptor Radioligand Assay
To investigate binding properties of sigma 1 receptor ligands to human sigma 1 receptor, transfected HEK-293 membranes and [^3H](+)-pentazocine (Perkin Elmer, NET-1056), as the radioligand, were used. The assay was carried out with 7 μg of membrane suspension, 5 nM of [^3H](+)-pentazocine in either absence or presence of either buffer or 10 μM Haloperidol for total and non-specific binding, respectively. Binding buffer contained Tris-HCl 50 mM at pH 8. Plates were incubated at 37° C. for 120 minutes. After the incubation period, the reaction mix was then transferred to MultiScreen HTS, FC plates (Millipore), filtered and plates were washed 3 times with ice-cold 10 mM TrisHCL (pH7.4). Filters were dried and counted at approximately 40% efficiency in a MicroBeta scintillation counter (Perkin-Elmer) using EcoScint liquid scintillation cocktail.
Consider `Cc1c2n(c3ccccc13)CCN(C(=O)CN1CCCCC1)C2` [Example 14, 1-(10-methyl-3,4-dihydropyrazino[1,2-a]indol-2(1H)-yl)-2-(piperidin-1-yl)ethanone], for which the Ki worked out at 24 nM.

The molecule `C[C@H](CN1CCN(C)CC1)C(=O)N1CCn2c(cc3ccccc32)C1` [Example 47, (R)-1-(3,4-dihydropyrazino[1,2-a]indol-2(1H)-yl)-2-methyl-3-(4-methylpiperazin-1-yl)propan-1-one] came in with a Ki of 49.5 nM.

The molecule `C[C@H](C(=O)N1CCN2c3ccccc3C[C@@H]2C1)N1CCN(C2CCCCC2)CC1` [Example 54, (R)-2-(4-cyclohexylpiperazin-1-yl)-1-((R)-3,4,10,10a-tetrahydropyrazino[1,2-a]indol-2(1H)-yl)propan-1-one] came in with a Ki of 71.6 nM.

As to `C[C@@H](CC(=O)N1CCn2c(cc3ccccc32)C1)N1CCN(C)CC1` [Example 49, (S)-1-(3,4-dihydropyrazino[1,2-a]indol-2(1H)-yl)-3-(4-methylpiperazin-1-yl)butan-1-one], the Ki was 91.7 nM.

Consider `CCN1CCN(C(C)C(=O)N2CCn3c(cc4cc(F)ccc43)C2)CC1` (stereo not shown) [Example 29, 2-(4-ethylpiperazin-1-yl)-1-(8-fluoro-3,4-dihydropyrazino[1,2-a]indol-2(1H)-yl)propan-1-one], for which the Ki stood at 125 nM.

As to `O=C(CN1CCC(Cc2ccccc2)CC1)N1CCn2c(cc3ccccc32)C1` [Example 6, 2-(4-benzylpiperidin-1-yl)-1-(3,4-dihydropyrazino[1,2-a]indol-2(1H)-yl)ethanone hydrochloride], the affinity corresponds to a Ki of 14.4 nM.

`CC(C(=O)N1CCn2c(cc3ccccc32)C1)N1CCN(C)CC1` (stereo not shown) [Example 1, 1-(3,4-dihydropyrazino[1,2-a]indol-2(1H)-yl)-2-(4-methylpiperazin-1-yl)propan-1-one] gave a Ki of 105 nM.

Consider `C[C@H](CC(=O)N1CCn2c(cc3ccccc32)C1)N1CCN(C)CC1` [Example 50, (R)-1-(3,4-dihydropyrazino[1,2-a]indol-2(1H)-yl)-3-(4-methylpiperazin-1-yl)butan-1-one], for which the affinity corresponds to a Ki of 251 nM.

`CC(CC(=O)N1CCn2c(cc3ccccc32)C1)N1CCN(C)CC1` (stereo not shown) [Example 3, 1-(3,4-dihydropyrazino[1,2-a]indol-2(1H)-yl)-3-(4-methylpiperazin-1-yl)butan-1-one] displayed a Ki of 68.2 nM.

`O=C(CCN1CCCCCC1)N1CCn2c(cc3ccccc32)C1` [Example 17, 3-(azepan-1-yl)-1-(3,4-dihydropyrazino[1,2-a]indol-2(1H)-yl)propan-1-one]: the Ki worked out at 10.9 nM.

As to `CN1CCN(C(C)(C)C(=O)N2CCn3c(cc4ccccc43)C2)CC1` [Example 2, 1-(3,4-dihydropyrazino[1,2-a]indol-2(1H)-yl)-2-methyl-2-(4-methylpiperazin-1-yl)propan-1-one], the affinity corresponds to a Ki of 96.1 nM.

As to `CCC(C(=O)N1CCn2c(cc3ccccc32)C1)N(C)CCN(C)C` (stereo not shown) [Example 39, 1-(3,4-dihydropyrazino[1,2-a]indol-2(1H)-yl)-2-((2-(dimethylamino)ethyl)(methyl)amino)butan-1-one], the affinity, expressed as Ki, was 427 nM.

`Cc1c2n(c3ccccc13)CCN(C(=O)CN1CCC(Cc3ccccc3)CC1)C2` [Example 15, 2-(4-benzylpiperidin-1-yl)-1-(10-methyl-3,4-dihydropyrazino[1,2-a]indol-2(1H)-yl)ethanone] had a Ki of 26.2 nM.

For `CC(C(=O)N1CCN2c3ccccc3CC2C1)N1CCN(C)CC1` (stereo not shown) [Example 25, 2-(4-methylpiperazin-1-yl)-1-(3,4,10,10a-tetrahydropyrazino[1,2-a]indol-2(1H)-yl)propan-1-one], the Ki came to 118 nM.

In turn, `CC(C(=O)N1CCn2c(cc3ccccc32)C1)N1CCN(C2CCCCC2)CC1` (stereo not shown) [Example 24, 2-(4-cyclohexylpiperazin-1-yl)-1-(3,4-dihydropyrazino[1,2-a]indol-2(1H)-yl)propan-1-one] gave a Ki of 37.6 nM.

`C[C@@H](C(=O)N1CCN2c3ccccc3C[C@H]2C1)N1CCN(C)CC1` [Example 34, (S)-2-(4-methylpiperazin-1-yl)-1-((S)-3,4,10,10a-tetrahydropyrazino[1,2-a]indol-2(1H)-yl)propan-1-one] registered a Ki of 56.5 nM.

Molecule `O=C(CN1CCCCC1)N1CCn2c(cc3ccccc32)C1` [Example 5, 1-(3,4-dihydropyrazino[1,2-a]indol-2(1H)-yl)-2-(piperidin-1-yl)ethanone hydrochloride] showed a Ki of 39.8 nM.

Turning to `CCN(CC)CCNC(C)C(=O)N1CCn2c(cc3ccccc32)C1` (stereo not shown) [Example 30, 2-(2-(diethylamino)ethylamino)-1-(3,4-dihydropyrazino[1,2-a]indol-2(1H)-yl)propan-1-one], the Ki turned out to be 241 nM.

Take `Cc1ccc2c(c1)cc1n2CCN(C(=O)C(C)N2CCCCCC2)C1` (stereo not shown) [Example 13, 2-(azepan-1-yl)-1-(8-methyl-3,4-dihydropyrazino[1,2-a]indol-2(1H)-yl)propan-1-one]: the Ki came to 69.7 nM.

In the case of `CC(C(=O)N1CCn2c(cc3ccccc32)C1)N1CCC(N2CCCCC2)CC1` (stereo not shown) [Example 37, 2-(1,4′-bipiperidin-1′-yl)-1-(3,4-dihydropyrazino[1,2-a]indol-2(1H)-yl)propan-1-one], the Ki is 500 nM.

Consider `CC(C(=O)N1CCn2c(cc3ccccc32)C1)N1CCC(Cc2ccccc2)CC1` (stereo not shown) [Example 10, 2-(4-benzylpiperidin-1-yl)-1-(3,4-dihydropyrazino[1,2-a]indol-2(1H)-yl)propan-1-one], for which the inhibition constant (Ki) was found to be 25 nM.

Consider `CN1CCN(C(C)(C)C(=O)N2CCN3c4ccccc4CC3C2)CC1` (stereo not shown) [Example 44, 2-methyl-2-(4-methylpiperazin-1-yl)-1-(3,4,10,10a-tetrahydropyrazino[1,2-a]indol-2(1H)-yl)propan-1-one], for which the Ki amounted to 175 nM.

Molecule `O=C(CCCN1CCCCCC1)N1CCn2c(cc3cc(F)ccc32)C1` [Example 21, 4-(azepan-1-yl)-1-(8-fluoro-3,4-dihydropyrazino[1,2-a]indol-2(1H)-yl)butan-1-one] yielded a Ki of 21.9 nM.

Molecule `O=C(CCCN1CCCCC1)N1CCn2c(cc3ccccc32)C1` [Example 20, 1-(3,4-dihydropyrazino[1,2-a]indol-2(1H)-yl)-4-(piperidin-1-yl)butan-1-one] displayed a Ki of 28.8 nM.

The molecule `C[C@@H](C(=O)N1CCN2c3ccccc3C[C@H]2C1)N1CCN(C2CCCCC2)CC1` [Example 53, (S)-2-(4-cyclohexylpiperazin-1-yl)-1-((S)-3,4,10,10a-tetrahydropyrazino[1,2-a]indol-2(1H)-yl)propan-1-one] registered a Ki of 94.7 nM.

Consider `CC[C@@H](C(=O)N1CCn2c(cc3ccccc32)C1)N1CCN(C)CC1` [Example 46, (S)-1-(3,4-dihydropyrazino[1,2-a]indol-2(1H)-yl)-2-(4-methylpiperazin-1-yl)butan-1-one], for which the Ki is 75.5 nM.

`CCC(C(=O)N1CCn2c(cc3ccccc32)C1)N1CCN(C)CC1` (stereo not shown) [Example 38, 1-(3,4-dihydropyrazino[1,2-a]indol-2(1H)-yl)-2-(4-methylpiperazin-1-yl)butan-1-one] registered a Ki of 89.3 nM.

The same assay, now with this note: transfected HEK-293 membranes, 5 nM [3H](+)-pentazocine as radioligand, 37° C., 120 minutes; maleate.
For the molecule `CC(C(=O)N1CCn2c(cc3ccccc32)C1)N1CCCCCC1` (stereo not shown) [Example 8, 2-(azepan-1-yl)-1-(3,4-dihydropyrazino[1,2-a]indol-2(1H)-yl)propan-1-one maleate], affinity was put at a Ki of 29.6 nM.
